Data taken from ChEMBL document CHEMBL1123448, “Studies in antifertility agents. 50. Stereoselective binding of d- and l-centchromans to estrogen receptors and their antifertility activity” (1986).

Tests used:
Rattus norvegicus = organism: Rattus norvegicus; experiment: Antiimplantation activity in sperm-positive female albino rats mated to coeval males of proven fertility; assay type: functional
[1] = target: T1, Estrogen receptor (Rattus norvegicus) (UniProt P06211+Q62986); experiment: Estrogenic activity as percent of control at 5 ug subcutaneous dose; assay type: functional
[2] = target: T1, Estrogen receptor (Rattus norvegicus); experiment: Estrogenic activity as percent of control at 50 ug subcutaneous dose; assay type: functional
[3] = target: T1, Estrogen receptor (Rattus norvegicus); experiment: Estrogenic activity as percent of control at 100 ug subcutaneous dose; assay type: functional
[4] = target: T1, Estrogen receptor (Rattus norvegicus); experiment: Anti-uterotrophic activity in immature rats at 100 ug; assay type: functional
[5] = target: T1, Estrogen receptor (Rattus norvegicus); experiment: Anti-uterotrophic activity in immature rats at 50 ug; assay type: functional
[6] = target: T1, Estrogen receptor (Rattus norvegicus); experiment: Anti-uterotrophic activity in immature rats at 5 ug; assay type: functional
[7] = target: T1, Estrogen receptor (Rattus norvegicus); experiment: Estrogenic activity in immature rats and assayed as uterine weight gain at 0.05 ug subcutaneous dose; assay type: functional
[8] = target: T1, Estrogen receptor (Rattus norvegicus); experiment: Estrogenic activity in immature rats and assayed as uterine weight gain at 100 ug subcutaneous dose; assay type: functional
[9] = target: T1, Estrogen receptor (Rattus norvegicus); experiment: Estrogenic activity in immature rats and assayed as uterine weight gain at 5 ug subcutaneous dose; assay type: functional
[10] = target: T1, Estrogen receptor (Rattus norvegicus); experiment: Estrogenic activity in immature rats and assayed as uterine weight gain at 50 ug subcutaneous dose; assay type: functional
[11] = target: T1, Estrogen receptor (Rattus norvegicus); experiment: Antiuterotrophic activity in immature rats at 100 ug; assay type: functional
[12] = target: T1, Estrogen receptor (Rattus norvegicus); experiment: Antiuterotrophic activity in immature rats at 50 ug; assay type: functional
[13] = target: T1, Estrogen receptor (Rattus norvegicus); experiment: Antiuterotrophic activity in immature rats at 5 ug; assay type: functional
[14] = target: T1, Estrogen receptor (Rattus norvegicus)
[15] = target: T1, Estrogen receptor (Rattus norvegicus); experiment: Estrogenic activity as percent of control at 500 ug subcutaneous dose; assay type: functional
[16] = target: T1, Estrogen receptor (Rattus norvegicus); experiment: Estrogenic activity in immature rats and assayed as uterine weight gain at 500 ug subcutaneous dose; assay type: functional

Control [1] [%]	Control [2] [%]	Control [3] [%]	Uterine wet weight [4]	inhibition [4] [%]	Uterine wet weight [5]	Uterine wet weight [6]	inhibition [6] [%]	Uterine wet weight [7]	Uterine wet weight [8]	Uterine wet weight [9]	Uterine wet weight [10]	Stimulation [11] [%]	Stimulation [12] [%]	Stimulation [13] [%]	Uterine wet weight [14]	Structure (SMILES)	MED (Rattus norvegicus) [mg/kg]	further results
–	–	–	–	–	–	–	–	–	–	–	–	–	–	–	–	COc1ccc2c(c1)OC(C)(C)C(c1ccccc1)C2c1ccc(OCCN2CCCC2)cc1 (racemic) [ORMELOXIFENE]	0.25	–
–	–	–	–	–	–	–	–	–	–	–	–	–	–	–	–	COc1ccc2c(c1)OC(C)(C)C(c1ccccc1)C2c1ccc(OCCN2CCCC2)cc1 (stereo in doubt; form 1) [ORMELOXIFENE]	5	–
–	–	–	–	–	–	–	–	–	–	–	–	–	–	–	–	COc1ccc2c(c1)CCC(c1ccccc1)=C2c1ccc(OCCN2CCCC2)cc1 [NAFOXIDINE]	–	minimal effective dose (Rattus norvegicus; Rattus norvegicus, read-out: MED): 0.1 mg/kg
222	286	303	46.4	40.3	52.6	52.7	28.7	15.8	51.4	37.8	48.6	68	77	77	25.8	COc1ccc2c(c1)OC(C)(C)C(c1ccccc1)C2c1ccc(OCCN2CCCC2)cc1 (stereo in doubt; form 2)	–	inhibition [5]: 28.7%
–	–	–	–	–	–	–	–	–	–	–	–	–	–	–	–	COc1ccc2c(c1)OC(C)(C)C(c1ccccc1)C2c1ccc(OCCN2CCCC2)cc1 (stereo in doubt; form 2) [ORMELOXIFENE]	0.15	–
187	238	238	42.3	28.4	55.7	52.3	1.9	16.2	40.4	31.8	40.5	80	105	99	16.8	COc1ccc2c(c1)OC(C)(C)C(c1ccccc1)C2c1ccc(OCCN2CCCC2)cc1 (stereo in doubt; form 1)	–	Control [15]: 267%; Uterine wet weight [16]: 45.4
174	281	288	56	16.7	60.3	52.5	23.8	16.6	49	29.5	47.7	87	94	82	16.3	COc1ccc2c(c1)OC(C)(C)C(c1ccccc1)C2c1ccc(OCCN2CCCC2)cc1 (racemic)	–	inhibition [5]: 8.1%
